# Source: patent US20250230193A1, “CYCLIC COMPOUND HAVING SELECTIVE KRAS INHIBITORY EFFECT ON HRAS AND NRAS” (CHUGAI SEIYAKU KABUSHIKI KAISHA, priority 2022, published 2025)
# Where a SMILES comes first, the peptide text is derived from it. Bridges are numbered along the chain shown (N, C = ends). [ ]: non-standard residue; d: D form. The star is where a group is joined. hPhe(3-Cl-4-CF3) = N[C@@H](CCc1ccc(C(F)(F)F)c(Cl)c1)C(=O)O; NPrPhe(4-CF3) = CCCN[C@@H](Cc1ccc(C(F)(F)F)cc1)C(=O)O; NMeGly(cPent) = CN[C@H](C(=O)O)C1CCCC1; NMeD = CN[C@@H](CC(=O)O)C(=O)O; NMeL = CN[C@@H](CC(C)C)C(=O)O; Pip = O=C(O)[C@@H]1CCCCN1; Morpholide = C1CN(*)CCO1; Ac5c = NC1(C(=O)O)CCCC1; Aze = O=C(O)[C@@H]1CCN1; Sar = CNCC(=O)O
# Legend:
# [1] = biological target: GDP-bound NRAS wild-type protein (Homo sapiens, UniProt P01111); assay: Binding to NRAS by surface plasmon resonance (SPR), Single Cycle Kinetics
# Sequence of GDP-bound NRAS wild-type protein (P01111 whole entry): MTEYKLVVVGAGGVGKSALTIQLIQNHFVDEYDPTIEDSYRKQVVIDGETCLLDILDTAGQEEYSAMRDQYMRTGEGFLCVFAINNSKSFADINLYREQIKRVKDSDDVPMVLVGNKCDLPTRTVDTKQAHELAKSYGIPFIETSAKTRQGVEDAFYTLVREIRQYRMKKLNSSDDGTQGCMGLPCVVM
# [2] = biological target: GDP-bound HRAS wild-type protein (Homo sapiens, UniProt P01112); assay: Binding to HRAS by surface plasmon resonance (SPR), Single Cycle Kinetics
# Sequence of GDP-bound HRAS wild-type protein (P01112 whole entry): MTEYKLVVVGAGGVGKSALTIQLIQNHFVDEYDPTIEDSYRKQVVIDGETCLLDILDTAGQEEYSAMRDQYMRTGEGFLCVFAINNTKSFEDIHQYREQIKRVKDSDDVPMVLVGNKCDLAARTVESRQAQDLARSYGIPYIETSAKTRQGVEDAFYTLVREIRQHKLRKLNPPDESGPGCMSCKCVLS
# [3] = KD ratio, GDP-bound NRAS wild-type vs GDP-bound KRAS wild-type, SPR
# [4] = KD ratio, GDP-bound HRAS wild-type vs GDP-bound KRAS wild-type, SPR
structure (smiles),measurement,setting,value
CCO[C@@H]1C[C@H]2C(=O)NC3(CCC3)C(=O)N(C)[C@@H](C3CCCC3)C(=O)N(C)[C@H](C(=O)N3CCOCC3)CC(=O)N(C)[C@@H](CC(C)(C)C)C(=O)N[C@@H]([C@@H](C)CC)C(=O)N(C)CC(=O)N(C)[C@H]3CCCCCN(C3=O)[C@@H](Cc3ccc(C(F)(F)F)cc3)C(=O)N(C)CC(=O)N[C@@H](CCc3cc(F)c(C(F)(F)F)c(F)c3)C(=O)N2C1 [PP0684],NRAS/KRAS (ratio of KD value with respect to GDP-bound NRAS wild-type protein to KD value with respect to KRAS),"[1]; KD ratio NRAS/KRAS, SPR",B (a compound having 3 or more and less than 10 is denoted as B)
same,HRAS/KRAS (ratio of KD value with respect to GDP-bound HRAS wild-type protein to KD value with respect to KRAS),"[2]; KD ratio HRAS/KRAS, SPR",B (a compound having 3 or more and less than 10 is denoted as B)
CCO[C@@H]1C[C@H]2C(=O)NC3(CCC3)C(=O)N(C)[C@@H](C3CCCC3)C(=O)N(C)[C@H](C(=O)N(C)CCOC)CC(=O)N(C)[C@@H](CC3CC3)C(=O)N[C@@H]([C@@H](C)CC)C(=O)N(C)CC(=O)N(C)[C@H]3C/C=C\CCN(C3=O)[C@@H](Cc3ccc(C(F)(F)F)cc3)C(=O)N(C)CC(=O)N[C@@H](CCc3ccc(Cl)c(Cl)c3)C(=O)N2C1 [PP1329],NRAS/KRAS (ratio of KD value for GDP-bound NRAS wild-type protein to KD value for KRAS),"[1]; SPR, KD ratio class",AA (a compound having 20 or more is denoted as AA)
same,HRAS/KRAS (ratio of KD value for GDP-bound HRAS wild-type protein to KD value for KRAS),"[2]; SPR, KD ratio class",A (a compound having 10 or more and less than 20 is denoted as A)
CCO[C@@H]1C[C@H]2C(=O)NC3(CCC3)C(=O)N(C)[C@@H](C3CCCC3)C(=O)N(C)[C@H](C(=O)N3CCOCC3)CC(=O)N(C)[C@@H](CC(C)C)C(=O)N[C@@H]([C@@H](C)CC)C(=O)N(C)CC(=O)N(C)[C@H]3C[C@H]4C[C@H]4CN(C3=O)[C@@H](Cc3ccc(C(F)(F)F)cc3)C(=O)N(C)CC(=O)N[C@@H](CCc3cc(F)c(C(F)(F)F)c(F)c3)C(=O)N2C1 [PP0829],NRAS/KRAS (ratio of KD value with respect to NRAS to KD value with respect to KRAS),[1]; [3],B (a compound having 3 or more and less than 10 is denoted as B)
same,HRAS/KRAS (ratio of KD value with respect to HRAS to KD value with respect to KRAS),[2]; [4],C (A compound having a KD ratio of 0.1 or more and less than 3 is denoted as C)
CCCN1C(=O)[C@@H]2CCN2C(=O)[C@@H]2CCCCN2C(=O)[C@H]([C@@H](C)CC)NC(=O)[C@H](CC(C)C)N(C)C(=O)C[C@@H](C(=O)N2CCOCC2)N(C)C(=O)[C@H](C2CCCC2)N(C)C(=O)C2(CCCC2)NC(=O)[C@@H]2CCCN2C(=O)[C@H](CCc2ccc(C(F)(F)F)c(Cl)c2)NC(=O)CN(C)C(=O)[C@@H]1Cc1ccc(C(F)(F)F)cc1 [PP0077] ([NMeL]I[Pip][Aze][NPrPhe(4-CF3)][Sar][hPhe(3-Cl-4-CF3)]P[Ac5c][NMeGly(cPent)][NMeD]-Morpholide; lactam N-11),NRAS/KRAS (ratio of KD for GDP-bound NRAS wild-type to KD for KRAS),"[1]; KD ratio NRAS/KRAS, SPR",C (A compound having a KD ratio of 0.1 or more and less than 3 is denoted as C)
same,HRAS/KRAS (ratio of KD for GDP-bound HRAS wild-type to KD for KRAS),"[2]; KD ratio HRAS/KRAS, SPR",B (a compound having 3 or more and less than 10 is denoted as B)
CCO[C@@H]1C[C@H]2C(=O)NC3(CC(F)(F)C3)C(=O)N(C)[C@@H](C3CCCC3)C(=O)N(C)[C@H](C(=O)N(C)C)CC(=O)N(C)[C@@H](CC3CCC3)C(=O)N[C@@H]([C@@H](C)CC)C(=O)N(C)CC(=O)N(C)[C@H]3C/C=C\CCN(C3=O)[C@@H](Cc3ccc(C(F)(F)F)cc3)C(=O)N(C)CC(=O)N[C@@H](CCc3cc(F)c(C(F)(F)F)c(F)c3)C(=O)N2C1 [PP1742],NRAS/KRAS (ratio of KD value for NRAS to KD value for KRAS),[1]; [3],A (a compound having 10 or more and less than 20 is denoted as A)
same,HRAS/KRAS (ratio of KD value for HRAS to KD value for KRAS),[2]; [4],A (a compound having 10 or more and less than 20 is denoted as A)
CC[C@H](C)[C@@H]1NC(=O)[C@H](COC)N(C)C(=O)C[C@@H](C(=O)N(C)C)N(C)C(=O)[C@H](C2CCCC2)N(C)C(=O)C2(CC(C)(C)C2)NC(=O)[C@@H]2C[C@@H](OC3CCCC3)CN2C(=O)[C@H](CCc2cc(F)c(C(F)(F)F)c(F)c2)NC(=O)CN(C)C(=O)[C@H](CC2CCC(F)(F)CC2)N2CC/C=C\C[C@@H](C2=O)N(C)C(=O)CN(C2CC2)C1=O [PP2634],NRAS/KRAS (ratio of KD value with respect to GDP-bound NRAS wild-type protein to KD value with respect to KRAS),"[1]; KD ratio NRAS/KRAS, class symbols",A (a compound having 10 or more and less than 20 is denoted as A)
same,HRAS/KRAS (ratio of KD value with respect to GDP-bound HRAS wild-type protein to KD value with respect to KRAS),"[2]; KD ratio HRAS/KRAS, class symbols",A (a compound having 10 or more and less than 20 is denoted as A)
CCO[C@@H]1C[C@H]2C(=O)NC3(CCC3)C(=O)N(C)[C@@H](C3CCCC3)C(=O)N(C)[C@H](C(=O)N(C)C)CC(=O)N(C)[C@@H](Cc3ccccc3)C(=O)N[C@@H]([C@@H](C)CC)C(=O)N(C)CC(=O)N(C)[C@H]3CCCCCN(C3=O)[C@@H](Cc3ccc(C(F)(F)F)cc3)C(=O)N(C)CC(=O)N[C@@H](CCc3cc(F)c(C(F)(F)F)c(F)c3)C(=O)N2C1 [PP0672],NRAS/KRAS (ratio of KD value with respect to GDP-bound NRAS wild-type protein to KD value with respect to KRAS),"[1]; KD ratio NRAS/KRAS, SPR",B (a compound having 3 or more and less than 10 is denoted as B)
same,HRAS/KRAS (ratio of KD value with respect to GDP-bound HRAS wild-type protein to KD value with respect to KRAS),"[2]; KD ratio HRAS/KRAS, SPR",B (a compound having 3 or more and less than 10 is denoted as B)
